We go through 56 compounds from the RepoRT retention time repository (doi:10.1007/s11306-011-0298-z).

SMILES strings stand for the structures.

This data set in a line: RP, Waters ACQUITY UPLC HSS T3, 100 × 2.1 mm, 1.8 µm, 30 °C, 0.3 mL/min, estimated dead time 0.73 min; A: water + 0.1% formic acid, pH 3; B: methanol + 0.1% formic acid, pH 3; gradient (min/%B) 0/0 6/0 56/100 60/100. Particulars: stereoisomer not certain.
With `O=c1cc(-c2ccc(O)c(O)c2)oc2cc(O)cc(O)c12` [luteolin], the LC retention time was 34.7 min.

For the compound `O=C(O)C=Cc1cccc(O)c1` [m-coumaric acid], the LC retention time was 26.2 min.

Take `O=C(O)CC(=O)O` [malonic acid]: the LC retention time is 2.11 min.

Turning to `COc1cc(-c2oc3cc(=O)cc(OC4OC(CO)C(O)C(O)C4O)c-3cc2OC2OC(CO)C(O)C(O)C2O)cc(OC)c1O` (stereo unspecified) [malvidin-3,5-diglucoside], the LC retention time was 20.7 min.

In the case of `COc1cc(-c2oc3cc(=O)cc(O)c-3cc2OC2OC(CO)C(O)C(O)C2O)cc(OC)c1O` (stereo unspecified) [malvidin-3-galactoside], the LC retention time is 24.2 min.

As to `OCC(O)C(O)C(O)C(O)CO` (stereo unspecified) [mannitol], the LC retention time is 1.38 min.

Turning to `OCC1OC(OCC2OC(O)C(O)C(O)C2O)C(O)C(O)C1O` (stereo unspecified) [melibiose], the LC retention time was 1.4 min.

Regarding `CCCCCCCCCCCCCCCCCCCC(=O)OC` [methyl arachidate], the LC retention time was 59.2 min.

Consider `CCCCCCCCCCCCCCCCCCCCCC(=O)OC` [methyl behenate], for which the LC retention time was 61.2 min.

On to `CCCCCCCC(=O)OC` [methyl caprylate], for which the LC retention time was 44.2 min.

Regarding `CCCCCCCC/C=C\CCCCCCCCCC(=O)OC` [methyl cis-11-eicosenoate], the LC retention time is 57.9 min.

`COC(=O)c1cc(O)c(O)c(O)c1` [methyl gallate]: the LC retention time is 18.2 min.

With `CCCCCCCCCCCCCCCCC(=O)OC` [methyl heptadecanoate], the LC retention time is 57.1 min.

Regarding `CCC=CCC1C(=O)CCC1CC(=O)OC` (stereo unspecified) [methyl jasmonate], the LC retention time is 38.4 min.

Turning to `CCC=CCC=CCC=CCCCCCCCC(=O)OC` [methyl linolenate], the LC retention time was 54.5 min.

As for `CCCCCCCCCCCCCC(=O)OC` [methyl myristate], the LC retention time was 54.4 min.

For `CCCCCCCCCCCCCCCCCCC(=O)OC` [methyl nonadecanoate], the LC retention time was 58.5 min.

Turning to `CCCCCCCCC=CCCCCCCCC(=O)OC` [methyl oleate], the LC retention time was 56.5 min.

On to `CCCCCCCCCCCCCCCC(=O)OC` [methyl palmitate], for which the LC retention time was 56.4 min.

In the case of `CCCCCCC=CCCCCCCCC(=O)OC` [methyl palmitoleate], the LC retention time was 54.9 min.

As to `CCCCCCCCCCCCCCCCCC(=O)OC` [methyl stearate], the LC retention time is 57.8 min.

Take `COC(=O)CCS` [methyl-3-mercaptoproprionate]: the LC retention time was 33.8 min.

On to `COC1OC(C(=O)O)C(O)C(O)C1O` (stereo unspecified) [methyl-glucuronide], for which the LC retention time was 2.4 min.

`COc1cc(-c2oc3cc(=O)cc4oc(C)cc(c2OC2OC(CO)C(O)C(O)C2O)c43)cc(OC)c1O` (stereo unspecified) [methylpyrano malvidin 3-glucoside]: the LC retention time was 28.6 min.

On to `COC(=O)c1ccccc1O` [methylsalicylate ester], for which the LC retention time is 34.5 min.

Regarding `O=c1c(O)c(-c2ccc(O)cc2O)oc2cc(O)cc(O)c12` [morin], the LC retention time is 31.9 min.

As to `C1COCCN1` [morpholine], the LC retention time is 1.4 min.

On to `O=C(O)C(O)C(O)C(O)C(O)C(=O)O` (stereo unspecified) [mucic acid], for which the LC retention time was 1.3 min.

For `OC1C(O)C(O)C(O)C(O)C1O` (stereo unspecified) [myo-inositol], the LC retention time was 1.22 min.

Regarding `CCCCCCC(=O)O` [n-heptanoic acid], the LC retention time was 36.1 min.

Regarding `O=C1CC(c2ccc(O)cc2)Oc2cc(OC3OC(CO)C(O)C(O)C3O)cc(O)c21` (stereo unspecified) [naringenin 7-glucoside], the LC retention time is 27.9 min.

Consider `O=C1CC(c2ccc(O)cc2)Oc2cc(O)cc(O)c21` (stereo unspecified) [naringenin], for which the LC retention time is 33.8 min.

For the compound `CC1OC(OC2C(Oc3cc(O)c4c(c3)OC(c3ccc(O)cc3)CC4=O)OC(CO)C(O)C2O)C(O)C(O)C1O` (stereo unspecified) [naringin], the LC retention time is 28.6 min.

In the case of `NC(=O)c1cccnc1` [nicotinamide], the LC retention time was 3.79 min.

Consider `CN1CCCC1c1cccnc1` (stereo unspecified) [nicotine], for which the LC retention time is 4.64 min.

As to `Nc1ncnc2c1ncn2C1OC(COP(=O)(O)OP(=O)(O)OCC2OC([n+]3cccc(C(=O)O)c3)C(O)C2O)C(O)C1O` (stereo unspecified) [nicotinic acid adenin dinucleotide], the LC retention time is 8.3 min.

As to `O=C(O)c1ccc[n+](C2OC(COP(=O)([O-])O)C(O)C2O)c1` (stereo unspecified) [nicotinic acid mononucleotide], the LC retention time is 2.1 min.

On to `O=C(O)c1cccnc1` [nicotinic acid], for which the LC retention time is 2.98 min.

`CCCCCCCCC(=O)O` [nonanoic acid]: the LC retention time was 43.1 min.

`O=C(O)C=Cc1ccccc1O` [o-coumaric acid]: the LC retention time was 28.1 min.

`CCCCCCCC(=O)O` [octanoic acid]: the LC retention time is 40 min.

With `CCCCCCCCOC1OC(CO)C(O)C(O)C1O` (stereo unspecified) [octyl glucopyranoside], the LC retention time is 37.6 min.

In the case of `CCCCCCCCN` [octylamine], the LC retention time was 27.6 min.

On to `CCCCCCCCC=CCCCCCCCC(=O)O` [oleic acid], for which the LC retention time is 54.9 min.

`O=c1cc(-c2ccc(O)c(O)c2)oc2c(C3OC(CO)C(O)C(O)C3O)c(O)cc(O)c12` (stereo unspecified) [orientin]: the LC retention time is 25.5 min.

As to `O=C(O)C(=O)O` [oxalic acid], the LC retention time is 1.3 min.

Turning to `COc1cc(-c2oc3cc(=O)cc4oc(O)cc(c2OC2OC(CO)C(O)C(O)C2O)c43)cc(OC)c1O` (stereo unspecified) [oxovitisin A], the LC retention time is 33.2 min.

As to `O=C(O)/C=C/c1ccc(O)cc1` [p-coumaric acid], the LC retention time is 24.3 min.

With `Oc1ccc(C2c3c(O)cc(O)cc3C3C(c4ccc(O)cc4)c4c(O)cc(O)cc4C23)cc1` (stereo unspecified) [pallidol], the LC retention time was 25.9 min.

As for `CCCCCCCCCCCCCCCC(=O)O` [palmitic acid], the LC retention time is 54.4 min.

With `OCC1OC(Oc2cc3c(OC4OC(CO)C(O)C(O)C4O)cc(O)cc3[o+]c2-c2ccc(O)cc2)C(O)C(O)C1O` (stereo unspecified) [pelargonidin-3,5-diglucoside], the LC retention time was 19.6 min.

As to `OCC1OC(Oc2cc3c(O)cc(O)cc3[o+]c2-c2ccc(O)cc2)C(O)C(O)C1O` (stereo unspecified) [pelargonidin-3-glucoside], the LC retention time was 23.7 min.

Regarding `O=c1c(OC2OC(COC3OCC(O)C(O)C3O)C(O)C(O)C2O)c(-c2ccc(O)c(O)c2)oc2cc(O)cc(O)c12` (stereo unspecified) [peltatoside], the LC retention time is 28.3 min.

In the case of `COc1cc(-c2[o+]c3cc(O)cc(OC4OC(CO)C(O)C(O)C4O)c3cc2OC2OC(CO)C(O)C(O)C2O)ccc1O` (stereo unspecified) [peonidin 3,5 diglucoside], the LC retention time was 20.2 min.

With `COc1cc(-c2[o+]c3cc(O)cc(O)c3cc2OC2OC(CO)C(O)C(O)C2O)ccc1O` (stereo unspecified) [peonidin 3-galactoside], the LC retention time was 24 min.

In the case of `COc1cc(-c2oc3cc(=O)cc(O)c-3cc2OC2OC(COC(=O)C=Cc3ccc(O)cc3)C(O)C(O)C2O)ccc1O` (stereo unspecified) [peonidin-3-O-(6-p-coumaroyl)-glucoside], the LC retention time is 33 min.
